The values below come from paper PMC12650144, “Interactive Role of the DHPR β1a SH3 Domain in Skeletal Muscle Excitation–Contraction Coupling” (Biomolecules, 2025).

Where no end group is shown, it is not given here.

The target of assay [1] is T1, β1a-SH3 domain (residues 101–272) (Mus musculus, UniProt Q8R3Z5).
T1 construct: The β1a SH3 protein (residues V101-P272) was purified by IMAC; polyhistidine-tagged ubiquitin (N, cleaved yes); made in house; host or cells: Escherichia coli BL21
In words: Tryptophan fluorescence quenching binding to β1a SH3 domain. The note with it: excitation 280 nm, emission 340 nm, refolded β1a-SH3, read-out: Binding affinity to β1a–SH3 domain (residues 101–272) (Kd). Here is the method: (§1) The mouse β1a and β2a subunits (NCBI reference sequences—NM_031173 and NM_023116), the β1a-SH3 domain (β1a residues V101-P272), and the α1s II-III loop (NCBI reference sequence—X05921, residues E666-L791) were amplified by PCR. Each PCR product was cloned in-frame downstream of a polyhistidine-tagged ubiquitin sequence in the plasmid pHUE [27]. The plasmids were transferred into Escherichia coli BL21, and expression of fusion protein was induced by addition of 0.1 mM IPTG (isopropyl β-D-1thiogalactoside) to the culture medium. The His-tagged proteins were purified by chromatography on Ni-agarose. Ubiquitin was removed from the N-terminal end of the recombinant proteins by digestion with a His-tagged ubiquitin-dependant protease. The recombinant β-subunit proteins and the II-III loop were further purified by preparative electrophoresis using a Bio-Rad model 491 prep cell. The final samples were dialysed into a buffer containing 50 mM sodium phosphate pH 8 and 300 mM NaCl (buffer A) and stored at −70 °C.
The β1a SH3 protein (residues V101-P272) was purified by IMAC (immobilized metal affinity chromatography) under denaturing conditions (6M guanidinium HCl) using Ni-NTA resin. The purity of the protein was assessed by SDS page gels (Supplementary Figure S1). The purified protein was then refolded by dialysing against buffer A, and the folded structure was checked by circular dichroism (Supplementary Figure S2). The purified and refolded protein was stored (−70 °C) at concentrations of ~1μM. It was not possible to directly assess the aggregation state of the β1a SH3 protein construct at 1μM as the SEC UV peak absorbance was below detectable levels.
(§2) Equilibrium dissociation constants for β1a and β2a subunit and β1a-SH3 domain binding to the α1s II-III loop and its peptides were determined with a Perkin-Elmer LS 50B6 Spectrofluorimeter. Changes in the intrinsic fluorescence of the tryptophan residues of the β1a subunit or the β1a-SH3 domain was monitored while titrating the α1s II-III loop or its peptides. Excitation was at 280 nm, and fluorescence emission was monitored at 340 nm. Data was corrected for dilution effects and for intrinsic fluorescence of the II-III loop or its peptides and fitted with nonlinear regression using GraphPad Prism software (6.0), as previously described.

The target of assay [2] is T2, DHPR β1a subunit (full-length, β1a-FL) (Mus musculus, UniProt Q8R3Z5).
T2 construct: full-length β1a (β1a-FL); polyhistidine-tagged ubiquitin (N, cleaved yes); made in house; host or cells: Escherichia coli BL21
The assay is described as follows: Tryptophan fluorescence quenching binding to full-length β1a. As to conditions: excitation 280 nm, emission 340 nm, full-length β1a titrated with loop/peptide, nonlinear regression, read-out: Binding affinity to β1a subunit (Kd). Here is the method:
as §1, §2

Assay [3] relates to DHPRβ1a-null myotubes expressing β1a constructs. The assay is described as follows: Depolarization (KCl)-induced Ca2+ release in Fura-2-loaded myotubes. Type of assay: cell-based, mouse. As to conditions: Fura-2-AM-loaded myotubes expressing the construct; sigmoidal dose–response fit. Here is the method:
All animal procedures were carried out in accordance with the guidelines of Harvard Medical Area Standing Committee on Animals under experimental protocol number 2589, approved on 01 Sept 2014. Primary myoblasts from DHPRβ1a-null mouse skeletal muscles were isolated from the hindlimb of neonatal mice, as described elsewhere. Stably transduced cell lines were then obtained by infection of primary β-null myoblasts with virion particles carrying the β1a genes at a multiplicity of infection (MOI) of 0.5 and then selected with […] Puromycin for 2 weeks, as described previously. Cells expressing mouse Wtβ1a or β1a-loop chimera subunit were then grown and differentiated in 96-well plates, as described previously. […] Fura-2 images were acquired with a 40 objective (Olympus, UApo/340), and fluorescent emission at 510 nm was then captured from regions of interest within each myotube at 33 frames/s using Piper-controlled acquisition software (Stanford Photonics) and is expressed as the ratio of signal collected at alternating 340 nm/380 nm excitation wavelengths. […] Fluo-4 fluorescent images were acquired using a 60 objective, and emission at 510 nm was then collected from regions of interest from individual cells excited at 490 nm and is expressed as arbitrary fluorescent units.

The subject of assay [4] is L-type Ca2+ current (DHPR channel) in β-null myotubes. The assay is described as follows: L-type Ca2+ current, whole-cell patch clamp in cultured myotubes. Type of assay: cell-based, mouse. As to conditions: mean ± SE. Here is the method: All animal procedures were carried out in accordance with the guidelines of Harvard Medical Area Standing Committee on Animals under experimental protocol number 2589, approved on 01 Sept 2014. Primary myoblasts from DHPRβ1a-null mouse skeletal muscles were isolated from the hindlimb of neonatal mice, as described elsewhere. Stably transduced cell lines were then obtained by infection of primary β-null myoblasts with virion particles carrying the β1a genes at a multiplicity of infection (MOI) of 0.5 and then selected with […] Puromycin for 2 weeks, as described previously. Cells expressing mouse Wtβ1a or β1a-loop chimera subunit were then grown and differentiated in 96-well plates, as described previously. Calcium imaging was performed 5–6 days after differentiation in myotubes loaded with 5μM Fura-2-AM or 2μM Fluo-4 (Molecular Probes) in imaging buffer (125 mM NaCl, 5 mM KCl, 2 mM CaCl2, 1.2 mM MgSO4, 6 mM glucose, and 25 mM HEPES-Tris, pH 7.4). Cell membrane depolarization was performed by 5s of perfusion with 5–7 volumes of imaging buffer containing increasing concentrations of KCl. To preserve osmolarity of the depolarization buffer, the increased K concentration was compensated with an equivalent reduction in total NaCl concentration. Sarcoplasmic reticulum Ca^2+ content of Fura-2-AM-loaded cultured myotubes was estimated from the peak fluorescent amplitude of the Ca^2+ transient induced by 40 mM caffeine stimulation in the presence of 1μM thapsigargin (Tg) and in the absence of extracellular Ca^2+ [34, 35]. Extracellular Ca^2+ entry at rest was estimated from the rate of dye quench by Mn^2+ entry in myotubes loaded with 5μM Fura-2-AM in the presence and in the absence of 10μM KB-R7943 (glycerol, 2-(2-(4-(4-nitrobenzyloxy) phenyl)ethyl)-isothiourea methane sulfonate), as described previously. Cells were then imaged at 360 nm (5 nm) with an intensified 10-bit digital CCD camera (XR-Mega-10, Stanford Photonics, Stanford, CA, USA) using aDG4 multiwavelength light source. Fura-2 images were acquired with a 40 objective (Olympus, UApo/340), and fluorescent emission at 510 nm was then captured from regions of interest within each myotube at 33 frames/s using Piper-controlled acquisition software (Stanford Photonics) and is expressed as the ratio of signal collected at alternating 340 nm/380 nm excitation wavelengths. […] Fluo-4 fluorescent images were acquired using a 60 objective, and emission at 510 nm was then collected from regions of interest from individual cells excited at 490 nm and is expressed as arbitrary fluorescent units.
The macroscopic Ca^2+ current was determined using the same equipment and protocols previously described (PMID: 29212769). […]
In general terms: The patch-clamp technique gives a direct electrical read-out from membranes.

The target in assay [5] is α1s C (α1s II-III loop C region peptide, residues 720–765). In words: Fluorescence binding of β isoforms and chimeras to α1s C peptide. As to conditions: β construct titrated with α1s C peptide. Here is the method: as §1, with “The recombinant β-subunit proteins and the II-III loop were further purified by preparative electrophoresis using a Bio-Rad model 491 prep cell. The final samples were dialysed into a buffer containing 50 mM sodium phosphate pH 8 and 300 mM NaCl (buffer A) and stored at −70 °C.” left out
as §2

T1 sequence (Q8R3Z5 101-272 isoform Q8R3Z5-4): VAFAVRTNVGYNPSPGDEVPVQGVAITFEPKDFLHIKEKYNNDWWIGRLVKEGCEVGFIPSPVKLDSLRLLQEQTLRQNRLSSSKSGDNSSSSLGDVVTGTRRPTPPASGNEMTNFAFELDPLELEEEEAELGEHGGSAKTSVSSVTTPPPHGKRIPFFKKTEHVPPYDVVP
T2 sequence (Q8R3Z5 1-524 isoform Q8R3Z5-4): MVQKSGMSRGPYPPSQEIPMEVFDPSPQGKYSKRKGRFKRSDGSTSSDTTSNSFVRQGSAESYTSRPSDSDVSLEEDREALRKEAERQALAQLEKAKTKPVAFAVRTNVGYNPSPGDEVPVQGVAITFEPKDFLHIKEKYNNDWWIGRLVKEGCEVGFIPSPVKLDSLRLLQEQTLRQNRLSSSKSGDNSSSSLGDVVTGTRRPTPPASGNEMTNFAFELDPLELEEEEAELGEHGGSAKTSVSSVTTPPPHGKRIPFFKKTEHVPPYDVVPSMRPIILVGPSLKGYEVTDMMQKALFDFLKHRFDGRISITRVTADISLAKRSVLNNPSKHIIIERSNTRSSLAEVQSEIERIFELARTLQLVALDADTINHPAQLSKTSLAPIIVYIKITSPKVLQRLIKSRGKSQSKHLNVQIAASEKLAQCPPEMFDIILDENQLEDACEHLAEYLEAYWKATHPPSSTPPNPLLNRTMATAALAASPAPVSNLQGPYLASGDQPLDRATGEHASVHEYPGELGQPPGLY

In general, Kd refers to the concentration at which binding is half-saturated. With “DEPEIPVSPRPRPLAEL [α1s C binding peptide 2 (sP2)]”, the Kd in assay [1] is 3.8 ± 0.2 µM; in assay [2] it was 5.4 ± 0.9 µM.

As to “EEPEMPVGPRPRPLSEL [α1c C binding peptide 2 (cP2)]”, the Kd in assay [1] stood at 3.6 ± 0.3 µM; in assay [2] it was 4.6 ± 0.3 µM.

Regarding “KDPYPSADFPGDD [α1s C binding peptide 1 (sP1)]”, the Kd in assay [1] came to 2.6 ± 0.4 µM; in assay [2], 3.6 ± 0.2 µM.

Regarding KDPYPSADFPGED [sP1 D⟶E mutant], the Kd in assay [1] came out at 17 ± 1 µM; in assay [2] it was 15 ± 2 µM.

Take KDPYPSADFTGDD [sP1 P⟶T mutant]: the dissociation constant (Kd) in assay [1] was determined as 19 ± 2 µM; in assay [2], 22 ± 2 µM.

For the substance KDPYPSADTPGDD [sP1 F⟶T mutant], the Kd in assay [1] came to 4.6 ± 0.3 µM; in assay [2], 4.6 ± 0.4 µM.

KDPYPSPDFPGDD [sP1 A⟶P mutant]: the Kd in assay [1] is 2.3 ± 0.2 µM; in assay [2], 4.5 ± 0.3 µM.

As for “KSPYPNPETTGEE [α1c C binding peptide 1 (cP1)]”, the Kd in assay [1] worked out at 19 ± 4 µM; in assay [2] it was 14 ± 2 µM.

“LKVDEFESNVNEVKDPYPSADFPGDDEEDEPEIPVSPRPRPLAELQ [α1s II–III loop C region (α1s C)]”: the Kd in assay [1] came to 3.6 ± 0.6 µM.

For orientation: EC50 means the concentration at which the effect is half-maximal. The low end stands for a more potent agent, the high end for a less potent agent. In the case of “β1a: full-length mouse DHPR β1a subunit; recombinant or expressed in β-null myotubes”, the EC50 in assay [3] turned out to be 6680 ± 450 µM. Moreover, the V1/2 in assay [4] (potential at which G = 1/2 Gmax, n = 22 / 21) amounted to 14.7 ± 0.88 mV. Also, the Vr in assay [4] (reversal potential, n = 22 / 21) stood at 84.8 ± 0.35 mV. This substance also had a k in assay [4] (slope parameter, n = 22 / 21) of 6.0 ± 0.17 mV. In assay [4] (β-null myotubes expressing the construct, external 10 mM CaCl2, n = 22 (Wt-β1a), n = 21 (β1a-RT loop)), this substance returned a Gmax of 453 ± 33.0 pS/pF. This substance also returned a Kd in assay [5] of 4.9 ± 0.6 µM.

Consider “β2a: mouse DHPR β2a (cardiac isoform) subunit, recombinant”, for which the “Kd for binding to α1s C” value in assay [5] is listed as “no measurable binding”.
